Results reported in patent publication US7294630B2, “Piperazinyl piperidine tachykinin antagonists” (SmithKline Beecham Corporation, priority 2000, dated 2007).
Counter-ions that a name gives are not always drawn.

How the values were obtained:
[1] = target: T1, recombinant human NK1 receptors expressed in Chinese Hamster Ovary (CHO) cell membranes (Homo sapiens, UniProt P25103); test: NK1-receptor binding affinity, displacement of [3H]-substance P; conditions: average of at least two determinations, [3H]substance P displacement; for Ki: read-out: pki (negative logarithm of the inhibition constant Ki) (converted)
T1 construct: expressed in transfected cells; host or cells: Chinese Hamster Ovary (CHO) cells, membrane preparation
T1 sequence (P25103 whole entry): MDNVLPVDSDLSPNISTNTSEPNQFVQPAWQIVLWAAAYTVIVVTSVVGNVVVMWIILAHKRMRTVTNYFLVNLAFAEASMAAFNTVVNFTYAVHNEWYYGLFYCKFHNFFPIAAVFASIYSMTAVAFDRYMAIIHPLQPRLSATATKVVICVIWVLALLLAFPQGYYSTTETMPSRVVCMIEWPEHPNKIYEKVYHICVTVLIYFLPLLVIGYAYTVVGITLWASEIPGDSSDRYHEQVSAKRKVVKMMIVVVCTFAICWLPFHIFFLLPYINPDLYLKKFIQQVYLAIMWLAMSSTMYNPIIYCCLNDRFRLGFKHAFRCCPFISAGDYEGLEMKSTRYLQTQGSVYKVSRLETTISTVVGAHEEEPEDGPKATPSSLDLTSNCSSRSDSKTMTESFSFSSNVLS
Protocol: CHO cell membranes were prepared by using a modification of the method described by Dam T and Quirion R (Peptides, 7:855-864, 1986). Thus ligand binding was performed in 0.4 ml of 50 mM HEPES, pH 7.4, containing 3 mM MnCl2, 0.02% BSA, 0.5 nM [^3H]Substance P (30÷56 Ci/mmol, Amersham), a final membrane concentration of 25 μg of protein/ml, and the test compounds. The incubation proceeded at room temperature for 40 min.
The affinity of the compound of the invention for NK1 receptor was determined using the NK1-receptor binding affinity method measuring in vitro by the compounds' ability to displace [3H]—substance P (SP) from recombinant human NK1 receptors expressed in Chinese Hamster Ovary (CHO) cell membranes. The affinity values are expressed as negative logarithm of the inhibition constant (Ki) of displacer ligands (pKi).

NK1 receptor = target: T2, NK1 receptor (Meriones unguiculatus, UniProt Q5DUB1); test: gerbil foot tapping model (NK1 agonist icv); type: in vivo; conditions: read-out: ED50 (dose required to inhibit by 50% the tapping induced by the NK1 agonist), oral administration, four hours before NK1 agonist 3 pmol icv
T2 construct: from tissue; host or cells: living gerbil, central nervous system (NK1 agonist infused into the cerebral ventricles)
T2 sequence (Q5DUB1 whole entry, the tested form may be a part): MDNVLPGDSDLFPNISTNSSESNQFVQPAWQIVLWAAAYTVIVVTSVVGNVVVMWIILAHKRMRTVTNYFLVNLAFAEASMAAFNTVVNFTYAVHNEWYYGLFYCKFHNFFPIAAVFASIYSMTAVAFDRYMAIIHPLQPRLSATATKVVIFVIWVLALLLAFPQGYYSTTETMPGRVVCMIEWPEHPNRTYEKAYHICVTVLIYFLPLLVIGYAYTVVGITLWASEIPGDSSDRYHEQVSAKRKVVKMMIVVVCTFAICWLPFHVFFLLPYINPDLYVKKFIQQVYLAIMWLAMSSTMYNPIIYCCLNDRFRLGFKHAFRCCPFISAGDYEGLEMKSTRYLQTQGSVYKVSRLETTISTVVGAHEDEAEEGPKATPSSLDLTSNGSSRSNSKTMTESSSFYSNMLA
Text: The action of the compounds of the invention at the NK1 receptor may be determined by using conventional tests.
The ability of the compounds of the invention to penetrate the central nervous system and to bind at the nk1 receptor may be determined using the gerbill foot tapping model as described by Rupniak & Williams, Eur. Jour. of Pharmacol., 1994.
The compound was orally administered and four hours later an NK1 agonist (e.g. delta-Aminovaler^6[Pro^9,Me-Leu^10]-substance P (7-11)) (3 pmol in 5 μicv) was infused directly in the cerebral ventricules of the animals. The duration of hind foot tapping induced by the NK1 agonist (e.g. delta-Aminovalery^6[Pro^9,Me-Leu^10]-substance P (7-11)) was recorded continuously for 3 min using a stopclock. […] Alternatively the compounds may be administered subcutaneously or intraperitoneally.

| Compound | Ki [1] | other results |
| --- | --- | --- |
| 2-(R)-(4-Fluoro-2-methyl-phenyl)-4-(S)-piperazin-1-yl-piperidine-1-carboxylic acid, [1-(R)-(3,5-bis-trifluoromethyl-phenyl)-ethyl]-methylamide hydrochloride [Example 9] |  | pki (negative logarithm of the inhibition constant Ki) [1]: 9.93 |
| Cc1cc(F)ccc1[C@H]1CC(N2CCN(C)CC2)CCN1C(=O)N(C)[C@H](C)c1cc(C(F)(F)F)cc(C(F)(F)F)c1 (mixture of isomers) [Example 8, 2-(R)-(4-Fluoro-2-methyl-phenyl)-4-(R,S)-(4-methyl-piperazin-1-yl)-piperidine-1-carboxylic acid, [1-(R)-(3,5-bis-trifluoromethyl-phenyl)-ethyl]-methylamide hydrochloride] | 0.209 nM |  |
| Cc1cc(F)ccc1[C@H]1CC(N2CCN(C)CC2)CCN1C(=O)N(C)Cc1cc(C(F)(F)F)cc(C(F)(F)F)c1.Cl.Cl (mixture of isomers) [Example 10, 2-(R)-(4-Fluoro-2-methyl-phenyl)-4-(R,S)-(4-methyl-piperazin-1-yl)-piperidine-1-carboxylic acid, (3,5-bis-trifluoromethyl-benzyl)-methylamide dihydrochloride] | 0.115 nM | melting point: 208 to 209 °C |
| CC(=O)N1CCN([C@H]2CCN(C(=O)N(C)[C@H](C)c3cc(C(F)(F)F)cc(C(F)(F)F)c3)[C@@H](c3ccc(F)cc3C)C2)CC1.Cl [Example 3, 4-(S)-(4-Acetyl-piperazin-1-yl)-2-(R)-(4-fluoro-2-methyl-phenyl)-piperidine-1-carboxylic acid, [1-(R)-(3,5-bis-trifluoromethyl-phenyl)-ethyl]-methylamide hydrochloride] |  | ED50 (NK1 receptor): 0.05 mg/kg |
| CC(=O)N1CCN([C@@H]2CCN(C(=O)N(C)Cc3cc(C(F)(F)F)cc(C(F)(F)F)c3)[C@@H](c3ccc(F)cc3C)C2)CC1 [Example 7a, 4-(R)-(4-Acetyl-piperazin-1-yl)-2-(R)-(4-fluoro-2-methyl-phenyl)-piperidine-1-carboxylic acid, (3,5-bis-trifluoromethyl-benzyl)-methylamide hydrochloride] | 0.708 nM |  |
| CC(=O)N1CCN([C@H]2CCN(C(=O)N(C)Cc3cc(C(F)(F)F)cc(C(F)(F)F)c3)[C@@H](c3ccc(F)cc3C)C2)CC1.Cl [Example 7b, 4-(S)-(4-Acetyl-piperazin-1-yl)-2-(R)-(4-fluoro-2-methyl-phenyl)-piperidine-1-carboxylic acid, (3,5-bis-trifluoromethyl-benzyl)-methylamide hydrochloride] | 0.0741 nM | ED50 (NK1 receptor): 0.19 mg/kg |
| Cc1cc(F)ccc1[C@H]1C[C@@H](N2CCN(C(=O)C3CC3)CC2)CCN1C(=O)N(C)[C@H](C)c1cc(C(F)(F)F)cc(C(F)(F)F)c1.Cl [Example 12, 4-(S)-(4-Cyclopropanoyl-piperazin-1-yl)-2-(R)-(4-fluoro-2-methyl-phenyl)-piperidine-1-carboxylic acid, [1-(R)-(3,5-bis-trifluoromethyl-phenyl)-ethyl]-methylamide hydrochloride] | 0.123 nM | ED50 (NK1 receptor): 0.27 mg/kg |
| Cc1cc(F)ccc1[C@H]1C[C@@H](N2CCN(C(=O)C(C)C)CC2)CCN1C(=O)N(C)[C@H](C)c1cc(C(F)(F)F)cc(C(F)(F)F)c1 [Example 14, 4-(S)-[4-(2-Methyl-propanoyl)-piperazin-1-yl]-2-(R)-(4-fluoro-2-methyl-phenyl)-piperidine-1-carboxylic acid, [1-(R)-(3,5-bis-trifluoromethyl-phenyl)-ethyl]-methylamide hydrochloride] | 0.1 nM |  |
| Cc1cc(F)ccc1[C@H]1C[C@@H](N2CCN(C(=O)N(C)C)CC2)CCN1C(=O)N(C)Cc1cc(C(F)(F)F)cc(C(F)(F)F)c1 [Example 15, 4-(S)-[1-[(3,5-Bis-trifluoromethyl-benzyl)-methyl-carbamoyl]-2-(R)-(4-fluoro-2-methyl-phenyl)-piperidin-4-yl]-piperazine-1-carboxylic acid, dimethylamide hydrochloride] | 0.0457 nM |  |
| CNC(=O)N1CCN([C@H]2CCN(C(=O)N(C)Cc3cc(C(F)(F)F)cc(C(F)(F)F)c3)[C@@H](c3ccc(F)cc3C)C2)CC1 [Example 16, 4-(S)-[1-[(3,5-Bis-trifluoromethyl-benzyl)-methyl-carbamoyl]-2-(R)-(4-fluoro-2-methyl-phenyl)-piperidin-4-yl]-1-carboxylic acid, methylamide hydrochloride] | 0.0437 nM |  |
| CC(=O)N1CCN([C@H]2CCN(C(=O)N(C)[C@H](C)c3cc(C(F)(F)F)cc(C(F)(F)F)c3)[C@@H](c3ccc(F)cc3)C2)CC1 [Example 19, 4-(S)-(4-Acetyl-piperazin-1-yl)-2-(R)-(4-fluoro-phenyl)-piperidine-1-carboxylic acid, [1-(R)-(3,5-bis-trifluoromethyl-phenyl)-ethyl]-methylamide hydrochloride] | 0.417 nM |  |
